Measured values published in patent US5773646A, “Meta-substituted phenylene derivatives” (G. D. Searle & Co., priority 1997, dated 1998).
Structures can show the parent of a compound that is named as a salt.

Legend:
[1] = molecular target: T1, Human fibrinogen receptor (αIIb β3) (Homo sapiens, UniProt P05106+P08514); assay: Purified IIb/IIIa receptor assay (solid phase receptor assay, biotinylated vitronectin competition); settings: inhibition of 50% of the maximum binding of biotinylated vitronectin; 1 nM labeled ligand, 2 hours, room temperature, highest concentration of test compound 1.0×10^-4 M
T1 construct: Human fibrinogen receptor (αIIb β3) was purified from outdated platelets; from tissue; host or cells: outdated human platelets
Description: PURIFIED IIb/IIIa RECEPTOR ASSAY Human fibrinogen receptor (αIIb β3) was purified from outdated platelets. (Pytela, R., Pierschbacher, […]., Suzuki, S., and […] acid adhesion receptors", Methods in Enzymology 144(1987):475-489.) Human vitronectin was purified from fresh frozen plasma as described in Yatohgo, T., Izumi, M., Kashiwagi, H., and Hayashi, M., "Novel purification of vitronectin from human plasma by heparin affinity chromatography," Cell Structure and Function 13(1988):281-292. Biotinylated human vitronectin was prepared by coupling NHS-biotin from Pierce Chemical Company (Rockford, Ill.) to purified vitronectin as previously described. (Charo, […]., Phillips, D. R., Hsu, M. A., Scarborough, R. M., "Inhibition of fibrinogen binding to GP IIb/IIIa by a GP IIIa peptide", J. Biol. Chem. 266(3)(1991):1415-1421.) Assay buffer, OPD substrate tablets, and RIA grade BSA were obtained from Sigma (St. Louis, Mo.). Anti-biotin antibody was obtained from Calbiochem (La Jolla, Calif.). Linbro microtiter plates were obtained from Flow Labs (McLean, Va.). ADP reagent was obtained from Sigma (St. Louis, Mo.). Solid Phase Receptor Assays This assay is essentially the same reported in […]., Bader, R., Byers-Ward, […]., Plow, E. F. and Ruggeri, Z. M., "Increased surface expression of the membrane glycoprotein IIb/IIIa complex induced by platelet activation: Relationships to the binding of fibrinogen and platelet aggregation", Blood 70(1987):475-483. The purified human fibrinogen receptor (αIIb β3) was diluted from stock solutions to 1.0 μg/mL in Tris-buffered saline containing 1.0 mM Ca^++, Mg^++, and Mn^++, pH 7.4 (TBS^+++). The diluted receptor was immediately transferred to Linbro microtiter plates at 100 μL/well (100 ng receptor/well). The plates were sealed and incubated overnight at 4° C. to allow the receptor to bind to the wells. All remaining steps were at room temperature. The assay plates were emptied and 200 μL of 1% RIA grade BSA in TBS^+++ (TBS^+++ /BSA) were added to block exposed plastic surfaces. Following a 2 hour incubation, the assay plates were washed with TBS^+++ using a 96 well plate washer. Logarithmic serial dilution of the test compound and controls were made starting at a stock concentration of 2 mM and using 2 nM biotinylated vitronectin in TBS^+++ /BSA as the diluent. This premixing of labeled ligand with test (or control) ligand, and subsequent transfer of 50 μL aliquots to the assay plate was carried out with a CETUS Propette robot; the final concentration of the labeled ligand was 1 nM and the highest concentration of test compound was 1.0×10^-4 M. The competition occurred for two hours after which all wells were washed with a plate washer as before. Affinity purified horseradish peroxidase labeled goat antibiotin antibody was diluted 1:3000 in TBS^+++ /BSA and 125 μL were added to each well. After 30 minutes, the plates were washed and incubated with […]/H2 O2 substrate in 100 mM/L citrate buffer, pH 5.0. The plate was read with a microtiter plate reader at a wavelength of 450 nm and when the maximum-binding control wells reached an absorbance of about 1.0, the final A450 were recorded for analysis. The data were analyzed using a macro written for use with the EXCELTM spreadsheet program. The mean, standard deviation, and %CV were determined for duplicate concentrations. The mean A450 values were normalized to the mean of four maximum-binding controls (no competitor added)(B-MAX). The normalized values were subjected to a four parameter curve fit algorithm, [Robard et al., Int.

[2] = molecular target: T2, Human vitronectin receptor (αv β3) (Homo sapiens, UniProt P05106+P06756); assay: Vitronectin adhesion assay (solid phase receptor assay, biotinylated vitronectin competition); assay type: binding; settings: inhibition of 50% of the maximum binding of biotinylated vitronectin; 1 nM labeled ligand, 2 hours, room temperature, highest concentration of test compound 1.0×10^-4 M; read-out: AvB3 IC50
T2 construct: Human vitronectin receptor(αv β3) was purified from human placenta; from tissue; host or cells: human placenta
Experimental: VITRONECTIN ADHESION ASSAY Human vitronectin receptor(αv β3) was purified from human placenta as previously described [Pytela et al., Methods in Enzymology, 144:475-489 (1987)). Human vitronectin was purified from fresh frozen plasma as previously described [Yatohgo et al., Cell Structure and Function, 13:281-292 (1988)]. Biotinylated human vitronectin was prepared by coupling NHS-biotin from Pierce Chemical Company (Rockford, Ill.) to purified vitronectin as previously described [Charo et al., J. Biol. Chem., 266(3):1415-1421 (1991)]. Assay buffer, OPD substrate tablets, and RIA grade BSA were obtained from Sigma (St. Louis, Mo.). Anti-biotin antibody was obtained from Calbiochem (La Jolla, Calif.). Linbro microtiter plates were obtained from Flow Labs (McLean, Va.). ADP reagent was obtained from Sigma (St. Louis, Mo.). Solid Phase Receptor Assays This assay was essentially the same as previously reported [Niiya et al., Blood, 70:475-483 (1987)]. The purified human vitronectin receptor (αv β3) was diluted from stock solutions to 1.0 μg/mL in Tris-buffered saline containing 1.0 mM Ca^++, Mg^++, and Mn^++, pH 7.4 (TBS^+++). The diluted receptor was immediately transferred to Linbro microtiter plates at 100 μL/well (100 ng receptor/well). The plates were sealed and incubated overnight at 4° C. to allow the receptor to bind to the wells. All remaining steps were at room temperature. The assay plates were emptied and 200 μL of 1% RIA grade BSA in TBS^+++ (TBS^+++ /BSA) were added to block exposed plastic surfaces. Following a 2 hour incubation, the assay plates were washed with TBS^+++ using a 96 well plate washer. Logarithmic serial dilution of the test compound and controls were made starting at a stock concentration of 2 mM and using 2 nM biotinylated vitronectin in TBS^+++ /BSA as the diluent. This premixing of labeled ligand with test (or control) ligand, and subsequent transfer of 50 μL aliquots to the assay plate was carried out with a CETUS Propette robot; the final concentration of the labeled ligand was 1 nM and the highest concentration of test compound was 1.0×10^-4 M. The competition occurred for two hours after which all wells were washed with a plate washer as before. Affinity purified horseradish peroxidase labeled goat antibiotin antibody was diluted 1:3000 in TBS^+++ /BSA and 125 μL were added to each well. After 30 minutes, the plates were washed and incubated with OPD/H2 O2 substrate in 100 mM/L Citrate buffer, pH 5.0. The plate was read with a microtiter plate reader at a wavelength of 450 nm and when the maximum-binding control wells reached an absorbance of about 1.0, the final A450 were recorded for analysis. The data were analyzed using a macro written for use with the EXCEL™ spreadsheet program. The mean, standard deviation, and %CV were determined for duplicate concentrations. The mean A450 values were normalized to the mean of four maximum-binding controls (no competitor added)(B-MAX). The normalized values were subjected to a four parameter curve fit algorithm [Rodbard et al., Int.

Structure (SMILES)	IC50 [1] [µM]	IC50 [2] [µM]
N=C(N)Nc1cccc(CNc2cccc(C(CC(=O)O)c3ccccc3)c2)c1 (stereo not drawn) [Example 11, 3-[[[3-[(aminoiminomethyl)amino]phenyl]methyl]amino]-β-phenylbenzenepropanoic acid, trifluoroacetate salt]	2.44	0.554
O=C(O)CC(c1ccccc1)c1cccc(NS(=O)(=O)c2cccc(NC(=O)NCc3ccccc3)c2)c1 (stereo not drawn) [Example 13, 3-[[[3-[[[(phenylmethyl)amino]carbonyl]amino]phenyl]sulfonyl]amino]-β-phenylbenzenepropanoic acid, monohydrate]	11.8	0.163
CC(C)(C)OC(=O)CC(c1ccccc1)c1cccc(NS(=O)(=O)c2cccc(NC(N)=NC#N)c2)c1 (stereo not drawn) [Example 15]	1.36	0.0404
CCOC(=O)CCc1cccc(CNC(=O)c2cccc(C#N)c2)c1 [Example 19, ethyl 3-[[[[3-(cyano)phenyl]carbonyl]amino]methyl]benzenepropanoate, diacetate salt]	57.6	> 100
CCOC(=O)CCc1cccc(CNC(=O)c2cccc(NC(N)=O)c2)c1 [Example 28, ethyl 3-[[[[3-[(aminocarbonyl)amino]phenyl]carbonyl]amino]methyl]benzenepropanoate]	> 100	> 100
O=C(O)CCc1cccc(CNC(=O)c2cccc(NC(=O)NCc3ccccc3)c2)c1 [Example 31, 3-[[[[3-[[[(phenylmethyl)amino]carbonyl]amino]phenyl]carbonyl]amino]methyl]benzenepropanoic acid]	5.36	3.57
CCOC(=O)CCc1cccc(CNC(=O)c2cccc(NC(=N)N)c2)c1 [Example 34, ethyl 3-[[[[3-[(aminoiminomethyl)amino]phenyl]carbonyl]amino]methyl]benzenepropanoate, trifluoroacetate salt]	66.1	2.93
N=C(N)Nc1cccc(C(=O)Nc2cccc(CCC(=O)O)c2)c1 [Example 36, 3-[[[3-[(aminoiminomethyl)amino]phenyl]carbonyl]amino]benzenepropanoic acid, trifluoroacetate salt]	72.4	13.7
N=C(N)Nc1cccc(C(=O)NCc2cccc(C(CC(=O)O)c3ccccc3)c2)c1 (stereo not drawn) [Example 38, 3-[[[[3-[(aminoiminomethyl)amino]phenyl]carbonyl]amino]methyl]-β-phenylbenzenepropanoic acid, trifluoroacetate salt]	0.364	0.00895

Continued, values first:

IC50 [1] [µM]	IC50 [2] [µM]	Structure (SMILES)
21.6	15.3	NC(=O)Nc1cccc(C(=O)Nc2cccc(C(CC(=O)O)c3ccccc3)c2)c1 (stereo not drawn) [Example 5, 3-[[[3-[(aminocarbonyl)amino]phenyl]carbonyl]amino]-β-phenylbenzenepropanoic acid]
11.6	0.641	NC(=O)Nc1cccc(S(=O)(=O)Nc2cccc(C(CC(=O)O)c3ccccc3)c2)c1 (stereo not drawn) [Example 8, 3-[[[3-[(aminocarbonyl)amino]phenyl]sulfonyl]amino]-β-phenylbenzenepropanoic acid]
5.54	0.144	NC(=S)Nc1cccc(S(=O)(=O)Nc2cccc(C(CC(=O)O)c3ccccc3)c2)c1 (stereo not drawn) [Example 10, 3-[[[3-[(aminothioxomethyl)amino]phenyl]sulfonyl]amino]-β-phenylbenzenepropanoic acid]
4.35	> 10	N=C(N)c1cccc(C(=O)NCc2cccc(CCC(=O)O)c2)c1 [Example 23, 3-[[[[3-(aminoiminomethyl)phenyl]carbonyl]amino]methyl]benzenepropanoic acid, trifluoroacetate salt]
32	9.37	NC(=O)Nc1cccc(C(=O)NCc2cccc(CCC(=O)O)c2)c1 [Example 29, 3-[[[[3-[(aminocarbonyl)amino]phenyl]carbonyl]amino]methyl]benzenepropanoic acid]
> 100	> 100	CCOC(=O)CCc1cccc(CNC(=O)c2cccc(NC(=O)NCc3ccccc3)c2)c1 [Example 30, ethyl 3-[[[[3-[[[(phenylmethyl)amino]carbonyl]amino]phenyl]carbonyl]amino]methyl]benzenepropanoate]
6.08	0.183	N=C(N)Nc1cccc(C(=O)NCc2cccc(CCC(=O)O)c2)c1 [Example 35, 3-[[[[3-[(aminoiminomethyl)amino]phenyl]carbonyl]amino]methyl]benzenepropanoic acid, trifluoroacetate salt]
79	32.2	CCOC(=O)CC(c1ccccc1)c1cccc(CNC(=O)c2cccc(NC(=N)N)c2)c1 (stereo not drawn) [Example 37, ethyl 3-[[[[3-[(aminoiminomethyl)amino]phenyl]carbonyl]amino]methyl]-β-phenylbenzenepropanoate, trifluoroacetate salt]
62.4	8.56	CC(CC(=O)OC(C)(C)C)c1cccc(CNC(=O)c2cccc(NC(=N)N)c2)c1 (stereo not drawn) [Example 39, 1,1-dimethylethyl 3-[[[[3-[(aminoiminomethyl)amino]phenyl]carbonyl]amino]methyl]-β-methyl)benzenepropanoate, trifluoroacetate salt]
